Here are results for 15 compounds from patent publication US10208020B2, “Substituted amino triazoles useful as human chitinase inhibitors” (OncoArendi Therapeutics S.A., priority 2015, dated 2019).

A word on the IC50: it is the concentration at which inhibition is half-maximal.

For one assay, the target named is recombinant human AMCase (Homo sapiens (Human), UniProt Q9BZP6). As to the kind of experiment: Human AMCase activity assay. The format is biochemical. To be noted: citrate buffer pH 5.2, 37° C., 60 minutes; 4-methylumbelliferyl B-D-N,N′-diacetylchitobioside substrate; read-out: Activity on hAMCase, IC50.
Sequence of recombinant human AMCase (Q9BZP6 22-476): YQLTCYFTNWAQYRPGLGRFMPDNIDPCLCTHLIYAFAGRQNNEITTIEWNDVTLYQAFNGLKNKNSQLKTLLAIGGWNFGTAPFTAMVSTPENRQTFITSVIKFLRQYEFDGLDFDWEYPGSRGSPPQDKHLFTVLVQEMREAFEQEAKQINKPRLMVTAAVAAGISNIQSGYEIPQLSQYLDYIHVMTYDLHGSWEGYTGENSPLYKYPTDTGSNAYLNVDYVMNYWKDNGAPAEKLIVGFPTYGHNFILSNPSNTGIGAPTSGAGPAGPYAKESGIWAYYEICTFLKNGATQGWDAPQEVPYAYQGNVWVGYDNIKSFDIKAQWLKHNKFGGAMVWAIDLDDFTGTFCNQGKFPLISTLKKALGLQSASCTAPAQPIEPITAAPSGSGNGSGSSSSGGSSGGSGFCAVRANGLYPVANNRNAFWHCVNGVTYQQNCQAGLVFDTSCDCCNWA
A further assay concerns the target recombinant human CHIT1 (Homo sapiens (Human), UniProt Q13231). The assay is described as follows: Human CHIT1 activity assay. To be noted: citrate buffer pH 5.2, 37° C., 60 minutes; 4-methylumbelliferyl β-D-N,N′,N″-triacetylchitotriose substrate; read-out: Activity on hCHIT1, IC50. The assay is classed as biochemical.

A value given as a limit tells only on which side of the number the result lay.

Sequence of recombinant human CHIT1 (Q13231 22-466): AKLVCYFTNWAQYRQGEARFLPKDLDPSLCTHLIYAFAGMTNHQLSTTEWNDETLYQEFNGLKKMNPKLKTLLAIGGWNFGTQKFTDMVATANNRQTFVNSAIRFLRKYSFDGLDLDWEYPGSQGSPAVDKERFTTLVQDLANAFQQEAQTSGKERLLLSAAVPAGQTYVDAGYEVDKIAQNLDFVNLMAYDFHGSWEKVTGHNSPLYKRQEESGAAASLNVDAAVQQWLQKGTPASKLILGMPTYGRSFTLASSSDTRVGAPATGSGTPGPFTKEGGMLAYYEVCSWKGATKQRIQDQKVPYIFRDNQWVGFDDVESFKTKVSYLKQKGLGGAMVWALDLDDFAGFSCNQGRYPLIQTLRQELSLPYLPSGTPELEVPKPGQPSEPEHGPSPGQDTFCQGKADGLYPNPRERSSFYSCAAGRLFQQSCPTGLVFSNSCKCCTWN

Consider `CCOC[C@H]1CN(C2CCN(c3nnc(N)[nH]3)CC2)[C@@H](Cc2ccc(Cl)cc2)CO1` [Example 11, 5-(4-((2R,5S)-5-(4-chlorobenzyl)-2-(ethoxymethyl)morpholino)piperidin-1-yl)-4H-1,2,4-triazol-3-amine], for which the IC50 on recombinant human AMCase is less than 100 nM.

`COC(=O)N1C[C@H](Cc2ccc(Cl)cc2)N(C2CCN(c3nnc(N)[nH]3)CC2)C[C@@H]1C` [Example 39, methyl (2S,5S)-4-(1-(5-amino-4H-1,2,4-triazol-3-yl)piperidin-4-yl)-5-(4-chlorobenzyl)-2-methylpiperazine-1-carboxylate]: the IC50 on recombinant human CHIT1 was 10000 to 100000 nM.

For `COC(=O)CN1C[C@H](Cc2ccc(Cl)cc2)N(C2CCN(c3nnc(N)[nH]3)CC2)C[C@@H]1C` [Example 40, methyl 2-((2S,5S)-4-(1-(5-amino-4H-1,2,4-triazol-3-yl)piperidin-4-yl)-5-(4-chlorobenzyl)-2-methylpiperazin-1-yl)acetate], the IC50 on recombinant human AMCase was less than 100 nM; on recombinant human CHIT1, 100 to 1000 nM.

`Nc1nnc(N2CCC(N3CCCC[C@@H]3Cc3ccc(Cl)cc3)CC2)[nH]1` [Example 15, (R)-5-(2-(4-chlorobenzyl)-[1,4′-bipiperidin]-1′-yl)-4H-1,2,4-triazol-3-amine]: on recombinant human CHIT1, the half-inhibitory concentration (IC50) is less than 100 nM.

Consider `C[C@H]1CN(C2CCN(c3nnc(N)[nH]3)CC2)[C@@H](Cc2ccc(Cl)cc2)CN1S(C)(=O)=O` [Example 37, 5-(4-((2S,5S)-2-(4-chlorobenzyl)-5-methyl-4-(methylsulfonyl)piperazin-1-yl)piperidin-1-yl)-4H-1,2,4-triazol-3-amine], for which, at recombinant human CHIT1, the IC50 is 10000 to 100000 nM.

Turning to `C[C@H]1CN(C2CCN(c3nnc(N)[nH]3)CC2)[C@@H](Cc2ccc(Cl)cc2)CN1CC(=O)O` [Example 41, 2-((2S,5S)-4-(1-(5-amino-4H-1,2,4-triazol-3-yl)piperidin-4-yl)-5-(4-chlorobenzyl)-2-methylpiperazin-1-yl)acetic acid], the figures for the IC50 on recombinant human AMCase and on recombinant human CHIT1 were less than 100 nM and 100 to 1000 nM, respectively.

Take `Nc1nnc(N2CCC(N3CC(C(=O)O)CC[C@@H]3Cc3ccc(Cl)cc3)CC2)[nH]1` (stereo partly drawn) [Example 17, (6R)-1′-(5-amino-4H-1,2,4-triazol-3-yl)-6-(4-chlorobenzyl)-[1,4′-bipiperidine]-3-carboxylic acid]: the IC50 on recombinant human CHIT1 was in the range of 100 to 1000 nM.

For the compound `Nc1nnc(N2CCC(N3CCOC[C@@H]3Cc3ccc(Br)cc3)CC2)[nH]1` [Example 3, (S)-5-(4-(3-(4-bromobenzyl)morpholino)piperidin-1-yl)-4H-1,2,4-triazol-3-amine], at recombinant human CHIT1, the IC50 was less than 100 nM.

Regarding `Nc1nnc(N2CCC(N3CCOC[C@@H]3Cc3ccc(Cl)cc3)CC2)[nH]1` [Example 1, (S)-5-(4-(3-(4-chlorobenzyl)morpholino)piperidin-1-yl)-4H-1,2,4-triazol-3-amine], the half-inhibitory concentration (IC50) on recombinant human CHIT1 is less than 100 nM.

For `C[C@H]1CN(C2CCN(c3nnc(N)[nH]3)CC2)[C@@H](Cc2ccc(Cl)cc2)C(C)(C)O1` [Example 53, 5-(4-((3S,6S)-3-(4-chlorobenzyl)-2,2,6-trimethylmorpholino)piperidin-1-yl)-4H-1,2,4-triazol-3-amine], the 50% inhibitory concentration (IC50) on recombinant human CHIT1 fell in the range of 10000 to 100000 nM.

Take `CC1(C(=O)O)CC[C@H](Cc2ccc(Cl)cc2)N(C2CCN(c3nnc(N)[nH]3)CC2)C1` (stereo partly drawn) [Example 18, (6R)-1′-(5-amino-4H-1,2,4-triazol-3-yl)-6-(4-chlorobenzyl)-3-methyl-[1,4′-bipiperidine]-3-carboxylic acid]: at recombinant human CHIT1, the IC50 was in the range of 1000 to 10000 nM.

Regarding `Cc1ccc(S(=O)(=O)N2CCN(C3CCN(c4nnc(N)[nH]4)CC3)[C@@H](Cc3ccc(Cl)cc3)C2)cc1` [Example 35, (S)-5-(4-(2-(4-chlorobenzyl)-4-tosylpiperazin-1-yl)piperidin-1-yl)-4H-1,2,4-triazol-3-amine], on recombinant human CHIT1, the IC50 is 10000 to 100000 nM.

Consider `Nc1nnc(N2CCC(N3C[C@@H]4CCCN4C[C@@H]3Cc3ccc(Cl)cc3)CC2)[nH]1` [Example 49, 5-(4-((3S,8aS)-3-(4-chlorobenzyl)hexahydropyrrolo[1,2-a]pyrazin-2(1H)-yl)piperidin-1-yl)-4H-1,2,4-triazol-3-amine], for which the 50% inhibitory concentration (IC50) was less than 100 nM on recombinant human AMCase and 1000 to 10000 nM at recombinant human CHIT1.

Regarding `COC(C)(C)[C@H]1CN(C2CCN(c3nnc(N)[nH]3)CC2)[C@@H](Cc2ccc(Cl)cc2)CO1` [Example 14, 5-(4-((2R,5S)-5-(4-chlorobenzyl)-2-(2-methoxypropan-2-yl)morpholino)piperidin-1-yl)-4H-1,2,4-triazol-3-amine], the IC50 on recombinant human AMCase and on recombinant human CHIT1 was less than 100 nM in each case.

As to `CCOC(=O)C1CC[C@H](Cc2ccc(Cl)cc2)N(C2CCN(c3nnc(N)[nH]3)CC2)C1` (stereo partly drawn) [Example 16, ethyl (6R)-1′-(5-amino-4H-1,2,4-triazol-3-yl)-6-(4-chlorobenzyl)-[1,4′-bipiperidine]-3-carboxylate], at recombinant human CHIT1, the IC50 is less than 100 nM.
